The results in this text go back to patent publication US10793563B2, “GCN2 inhibitors and uses thereof” (Merck Patent GmbH, priority 2018, dated 2020).

A word on the IC50: it is the concentration at which inhibition is half-maximal.

GCN2 kinase, sequence (Q9P2K8 whole entry): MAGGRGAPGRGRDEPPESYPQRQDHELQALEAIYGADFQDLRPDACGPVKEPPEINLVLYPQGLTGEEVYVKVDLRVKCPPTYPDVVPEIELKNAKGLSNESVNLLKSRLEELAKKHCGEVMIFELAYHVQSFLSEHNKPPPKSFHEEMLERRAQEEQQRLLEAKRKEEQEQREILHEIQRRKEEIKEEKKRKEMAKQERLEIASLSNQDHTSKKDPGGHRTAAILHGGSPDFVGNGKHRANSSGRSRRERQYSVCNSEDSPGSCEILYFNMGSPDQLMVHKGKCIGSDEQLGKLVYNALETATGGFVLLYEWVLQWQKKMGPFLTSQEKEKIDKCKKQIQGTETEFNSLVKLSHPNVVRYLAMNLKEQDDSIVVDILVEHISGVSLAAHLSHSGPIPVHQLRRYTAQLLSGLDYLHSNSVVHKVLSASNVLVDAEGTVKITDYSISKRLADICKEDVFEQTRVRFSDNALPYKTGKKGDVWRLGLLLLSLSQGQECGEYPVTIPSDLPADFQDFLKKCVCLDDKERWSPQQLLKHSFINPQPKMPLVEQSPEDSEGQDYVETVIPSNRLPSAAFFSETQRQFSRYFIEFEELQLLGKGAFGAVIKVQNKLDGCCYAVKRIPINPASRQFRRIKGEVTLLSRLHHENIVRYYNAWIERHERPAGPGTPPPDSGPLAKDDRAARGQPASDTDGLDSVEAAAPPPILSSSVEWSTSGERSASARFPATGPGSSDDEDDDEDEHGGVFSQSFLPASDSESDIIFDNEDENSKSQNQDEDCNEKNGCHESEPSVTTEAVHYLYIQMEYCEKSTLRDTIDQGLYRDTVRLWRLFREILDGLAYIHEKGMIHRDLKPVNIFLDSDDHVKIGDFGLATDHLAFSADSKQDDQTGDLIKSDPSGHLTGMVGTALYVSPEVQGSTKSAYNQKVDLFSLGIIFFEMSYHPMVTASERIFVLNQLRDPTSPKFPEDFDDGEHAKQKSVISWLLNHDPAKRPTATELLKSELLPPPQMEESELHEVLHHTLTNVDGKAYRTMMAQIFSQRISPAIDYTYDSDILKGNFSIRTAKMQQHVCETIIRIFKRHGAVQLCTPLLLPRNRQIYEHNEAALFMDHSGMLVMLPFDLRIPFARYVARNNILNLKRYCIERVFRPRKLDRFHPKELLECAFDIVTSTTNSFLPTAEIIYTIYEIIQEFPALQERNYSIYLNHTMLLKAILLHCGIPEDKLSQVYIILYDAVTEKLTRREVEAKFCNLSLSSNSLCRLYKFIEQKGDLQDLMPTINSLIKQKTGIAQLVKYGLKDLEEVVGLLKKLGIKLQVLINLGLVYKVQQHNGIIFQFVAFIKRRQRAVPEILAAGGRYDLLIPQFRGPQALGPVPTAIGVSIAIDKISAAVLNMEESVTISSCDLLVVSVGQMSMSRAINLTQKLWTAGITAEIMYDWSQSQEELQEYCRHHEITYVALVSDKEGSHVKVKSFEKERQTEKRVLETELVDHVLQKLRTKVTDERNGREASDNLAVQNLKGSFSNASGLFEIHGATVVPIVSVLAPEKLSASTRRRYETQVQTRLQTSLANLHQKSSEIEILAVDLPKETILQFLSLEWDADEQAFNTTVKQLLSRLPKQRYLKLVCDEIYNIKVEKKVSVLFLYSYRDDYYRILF

The assay concerns the target GCN2 kinase (Homo sapiens (Human), UniProt Q9P2K8). The assay is described as follows: GCN2 Enzyme Inhibition Assay (Transcreener ADP2 fluorescence polarization). Format: biochemical. The conditions noted are these: 280 μM ATP, 200 μM (RS)7 peptide, 4 nM GCN2, 25° C. Put shortly: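 Transcreener ADP2 fluorescence polarization detection of ADP from 4 nM GCN2 with (RS)7 substrate in 25 mM Tris-HCl pH 7.5, 50 mM NaCl, 10 mM MgCl2, 1 mM DTT. Compound pre-incubated with enzyme 10 min at 25 °C; reaction started by ATP, run 1 h at 25 °C. IC50 and Ki(app) by tight-binding fit.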
For orientation: Fluorescence polarisation rises when a labelled molecule tumbles more slowly, as on binding a larger partner.
`C[C@H]1C[C@@H](N=S(C)(C)=O)CN(c2ccnc(-c3cnc4ccc(S(=O)(=O)NC5CC5)cn34)n2)C1` [I-319, N-cyclopropyl-3-(4-((3R,5S)-3-((dimethyl(oxo)-λ6-sulfaneylidene)amino)-5-methylpiperidin-1-yl)pyrimidin-2-yl)imidazo[1,2-a]pyridine-6-sulfonamide] gave an IC50 of 100 to 1000 nM. `C[C@H]1C[C@@H](N=S(C)(C)=O)CN(c2ccnc(-c3cnc4ccc(S(N)(=O)=O)cn34)n2)C1` [I-328, 3-(4-((3R,5S)-3-((dimethyl(oxo)-λ6-sulfaneylidene)amino)-5-methylpiperidin-1-yl)pyrimidin-2-yl)imidazo[1,2-a]pyridine-6-sulfonamide] had a concentration for half-maximal inhibition (IC50) of 100 to 1000 nM. The compound `C[C@@H]1C[C@H](N=S(C)(C)=O)CN(c2ccnc(-c3cnc4ccc(N5CC(F)C5)cn34)n2)C1` [I-330, (((3 S,5R)-1-(2-(6-(3-fluoroazetidin-1-yl)imidazo[1,2-a]pyridin-3-yl)pyrimidin-4-yl)-5-methylpiperidin-3-yl)imino)dimethyl-λ6-sulfanone] gave an IC50 of 100 to 1000 nM. The result for `CC1CN(c2ccnc(-c3cnc4ccc(C(F)(F)F)cn34)n2)CC(C#N)O1` (stereo not shown) [I-331, 6-methyl-4-(2-(6-(trifluoromethyl)imidazo[1,2-a]pyridin-3-yl)pyrimidin-4-yl)morpholine-2-carbonitrile] reads 100 to 1000 nM; that for `Cc1noc(C2CN(c3ccnc(-c4cnc5ccc(C(F)(F)F)cn45)n3)CCN2C)n1` (stereo not shown) [I-332, 3-methyl-5-(1-methyl-4-(2-(6-(trifluoromethyl)imidazo[1,2-a]pyridin-3-yl)pyrimidin-4-yl)piperazin-2-yl)-1,2,4-oxadiazole], 100 to 1000 nM; that for `CC1(C)CN(c2ccnc(-c3cnc4ccc(C(F)(F)F)cn34)n2)CCN1CC(F)(F)F` [I-333, 3-(4-(3,3-dimethyl-4-(2,2,2-trifluoroethyl)piperazin-1-yl)pyrimidin-2-yl)-6-(trifluoromethyl)imidazo[1,2-a]pyridine], 100 to 1000 nM. The compound `CC1(C)CN(c2ccnc(-c3cnc4ccc(C(F)(F)F)cn34)n2)CCN1` [I-334, 3-(4-(3,3-dimethylpiperazin-1-yl)pyrimidin-2-yl)-6-(trifluoromethyl)imidazo[1,2-a]pyridine] yielded an IC50 of 100 to 1000 nM.

Compound `COCCN1C(C)CN(c2ccnc(-c3cnc4ccc(C(F)(F)F)cn34)n2)CC1C` (stereo not shown) [I-335, 3-(4-(4-(2-methoxyethyl)-3,5-dimethylpiperazin-1-yl)pyrimidin-2-yl)-6-(trifluoromethyl)imidazo[1,2-a]pyridine] returned an IC50 of 100 to 1000 nM. As for `CC(=O)N1CCN(c2ccnc(-c3cnc4ccc(C(F)(F)F)cn34)n2)CC1(C)C` [I-336, 1-(2,2-dimethyl-4-(2-(6-(trifluoromethyl)imidazo[1,2-a]pyridin-3-yl)pyrimidin-4-yl)piperazin-1-yl)ethan-1-one], the half-maximal inhibitory concentration (IC50) lay in the range of 10 to 100 nM. Turning to `Cc1nnc(C2CN(c3ccnc(-c4cnc5ccc(C(F)(F)F)cn45)n3)CCN2)[nH]1` (stereo not shown) [I-337, 3-(4-(3-(5-methyl-4H-1,2,4-triazol-3-yl)piperazin-1-yl)pyrimidin-2-yl)-6-(trifluoromethyl)imidazo[1,2-a]pyridine], the half-maximal inhibitory concentration (IC50) lay within 100 to 1000 nM. Compound `O=S1(=O)CCN2CCN(c3ccnc(-c4cnc5ccc(C(F)(F)F)cn45)n3)CC2C1` (stereo not shown) [I-338, 8-(2-(6-(trifluoromethyl)imidazo[1,2-a]pyridin-3-yl)pyrimidin-4-yl)octahydropyrazino[2,1-c][1,4]thiazine 2,2-dioxide] came in with a half-maximal inhibitory concentration (IC50) of 100 to 1000 nM.

As for `Cc1noc([C@@H]2CN(c3ccnc(-c4cnc5cc(F)c(C6CC6)cn45)n3)C[C@H](C)O2)n1` [I-341, (2S,6S)-4-(2-(6-cyclopropyl-7-fluoroimidazo[1,2-a]pyridin-3-yl)pyrimidin-4-yl)-2-methyl-6-(3-methyl-1,2,4-oxadiazol-5-yl)morpholine], the IC50 was in the range of 100 to 1000 nM. For `NC(=O)[C@@H]1CN(c2ccnc(-c3cnc4ccc(Cl)cn34)n2)CCN1C1CC1` [I-350, (s)-4-(2-(6-chloroimidazo[1,2-a]pyridin-3-yl)pyrimidin-4-yl)-1-cyclopropylpiperazine-2-carboxamide], the IC50 was 100 to 1000 nM.
